The values that follow come from ChEMBL document CHEMBL3228040 (J Med Chem, 1979).

Active and inactive are the calls of the source. The calls are words filed in the database; no cut-off is given here.

The target in one experiment is Opioid receptor (Rattus norvegicus, UniProt P33533+P34975+P33535). Briefly: Displacement of radiolabeled dihydromorphine from opioid receptor in rat brain homogenates. It counts as tissue-based.
Experiment [1] relates to Mus musculus. Briefly: Analgesic activity in sc dosed mouse by hot plate assay. The class given is functional.
Experiment [2] has as its system Rhesus monkey. In words: Effect on physical dependence capacity in morphine-dependent rhesus monkey at 20 mg/kg by single-dose suppression test. It counts as functional, organism-based. More on the design: dose 20 mg/kg. The conditions noted are these: Macaca mulatta.
For experiment [3], the species on record is Mus musculus. Briefly: Analgesic activity in mouse by Nilsen assay. It counts as functional.
Experiment [4] has as its system Rhesus monkey. In words: Effect on physical dependence capacity in morphine-dependent rhesus monkey assessed as partial suppression of abstinence signs at 20 to 40 mg/kg by single-dose suppression test. Conditions: Macaca mulatta. The class given is functional, organism-based.
The species entered for experiment [5] is Mus musculus. Briefly: (§1) Analgesic activity in mouse by tail flick assay. The class given is functional. A general note: Thermal pain tests record how soon the animal reacts.
The species entered for experiment [6] is Mus musculus. Briefly: Analgesic activity in mouse assessed as inhibition of PPQ-induced writhing. It counts as functional. A general note: Writhing tests count abdominal constrictions after an irritant is injected.
The test system of experiment [7] is Rhesus monkey. In words: Effect on physical dependence capacity in morphine-dependent rhesus monkey at 1.2 mg/kg by single-dose suppression test. The class given is functional, organism-based. On the set-up: dose 1.2 mg/kg. Conditions: Macaca mulatta.
The species entered for experiment [8] is Mus musculus. Described as §1. It counts as functional, organism-based.
Experiment [9] relates to Rhesus monkey. Briefly: Effect on physical dependence capacity in morphine-dependent rhesus monkey up to 16 mg/kg by single-dose suppression test. The class given is functional, organism-based. On the set-up: dose 16 mg/kg. The conditions noted are these: Macaca mulatta.

A word on the EC50: it is the concentration at which the effect is half-maximal. One may read the ED50 as the dose at which the effect has come halfway, by size or by number of responders. At Opioid receptor, `CCOC(=O)C1(c2ccccc2)CCN(CCC#N)CC1` gave an EC50 of 8000 nM. In the experiment on Mus musculus [1], the 50% effective dose (ED50) is 100 mg/kg. Also, the result in the experiment with Rhesus monkey [2] was inactive.

`CCC(=O)C1(c2cccc(O)c2)CCN(CCC#N)CC1` displayed a 50% effective dose (ED50) in the experiment filed under Mus musculus [3] greater than 50 mg/kg. This compound displayed an EC50 on Opioid receptor of 1500 nM. For the same compound, the outcome with Rhesus monkey [4] was Active.

In turn, `CC[C@H]1C2Cc3ccc(O)cc3[C@@]1(C)CCN2C` (mixture of isomers) returned an EC50 at Opioid receptor of 15 nM. Besides, the median effective dose (ED50) with Mus musculus [1] was 1.3 mg/kg; in the experiment listed under Mus musculus [5], 6.4 mg/kg; in the experiment filed under Mus musculus [6] it was 0.2 mg/kg. Besides, the result in the experiment on Rhesus monkey [7] was Active.

The compound `CC[C@H]1C2Cc3ccc(O)cc3[C@@]1(C)CCN2CCC#N` (mixture of isomers) registered a concentration giving a half-maximal response (EC50) on Opioid receptor of 4 nM. The values for the median effective dose (ED50) in the experiment on Mus musculus [1], in the experiment filed under Mus musculus [5] and in the experiment listed under Mus musculus [6] were 0.21 mg/kg, 0.8 mg/kg and 0.09 mg/kg, respectively. The inhibition entry in the experiment filed under Mus musculus [8] is “inactive”. The result with Rhesus monkey [7] was Active.

The compound `CC[C@H]1C2Cc3ccc(O)cc3[C@@]1(C)CCN2CCC(N)=O` (mixture of isomers) had an EC50 at Opioid receptor of 9 nM. In the experiment on Mus musculus [1], this compound yielded an ED50 of 19.3 mg/kg. Moreover, the outcome in the experiment filed under Mus musculus [5] and in the experiment on Rhesus monkey [9] was inactive. For the same compound, the inhibition result in the experiment filed under Mus musculus [6] and in the experiment filed under Mus musculus [8] was “inactive” throughout.

In turn, `CC1C2Cc3ccc(O)cc3C1(C)CCN2C` (racemic) showed an EC50 at Opioid receptor of 9 nM. In addition, the ED50 in the experiment with Mus musculus [1] turned out to be 1.18 mg/kg.

`CCC(=O)C1(c2cccc(O)c2)CCN(C)CC1` [KETOBEMIDONE]: the 50% effective concentration (EC50) on Opioid receptor is given as 2 nM. Moreover, in the experiment on Mus musculus [1], the 50% effective dose (ED50) came out at 0.8 mg/kg.

As to `CCOC(=O)C1(c2ccccc2)CCN(C)CC1` [MEPERIDINE], the 50% effect level with Mus musculus [1] (ED50) was put at a dose of 4.7 mg/kg.

The compound `CN1CC[C@]23c4c5ccc(O)c4O[C@H]2[C@@H](O)C=C[C@H]3[C@H]1C5` [MORPHINE] displayed an ED50 in the experiment on Mus musculus [1] of 1.2 mg/kg.
